The test system of assay [1] is TNBC BT-549 cells. The experiment in a line: Cell survival / cell inhibition (MTT cell cytotoxicity assay) after 24 h treatment with photosensitizer and/or chemotherapeutic agent, dark or light-irradiated. The settings on record: for viability at 0.1 µM / viability at 0.01 µM: paclitaxel; for viability at 0.1 µM: high end of 10-100 nM, read-out: cell survival, drug only (end of decrease); for viability at 0.01 µM: low end of 10-100 nM, read-out: cell survival, drug only (start of decrease). Type of assay: cell-based, human. A general note: Tetrazolium assays rely on reduction of a dye to a coloured formazan, in cell work by metabolically active cells.

The subject of assay [2] is human TNBC BT-549 cells. Kind of assay: Fluorescence microscopy (Hoechst 33258) of cell morphology / cell death pathway. Type of assay: cell-based. The note with it: paclitaxel 50 nM, unirradiated (FIG. 18I).
The test system of assay [3] is human triple-negative breast cancer (TNBC) BT-549 cells. Kind of assay: Transmission electron microscopy of cell ultrastructure. The settings on record: paclitaxel 50 nM. The format is cell-based. The protocol:
Irregularly shaped nuclear membrane is apparent in treated cells in the dark or in the presence of light. Light dose in 30 seconds=0.48 J cm^−2. Concentrations: PSs=50 nM; paclitaxel=50 nM; and, fluororuracil=25 μM.
Cells were cultured to confluence in a petri dish ([…] in diameter), treated for 24 hrs with 500 nM of PS, then irradiated for 2 minutes as above. After 12 photosensitization 24 hours later, cells were scraped gently in the dark, fixed in 2.5% glutaraldehyde in 0.1M [COMPOUND LEFT OUT] buffer, then post-fixed with 1% osmium tetroxide (containing 0.8% [COMPOUND LEFT OUT], treated with 2% aqueous uranyl acetate, and subsequently dehydrated in gradient concentrations (50-100%) of varying ethanol:water mixtures. The resulting pellets were embedded in resin and consequently cut with an ultramicrotome to a 70 nm thickness, then viewed using Tecnai T20 transmission electron microscope.
Transmission electron micrographs of TNBC cells clearly differentiated distinct cellular compartments, in particular, of nuclear components and plasma membrane during treatment as shown in FIG. 19. A typical normal organelle morphology with smooth-contoured cellular plasma membrane is depicted in TNBC cells irradiated with light without treatment with PS nor chemotherapeutic agent (FIG. 19A). […]

Assay [4] deals with human gastric adenocarcinoma AGS cell line. The note with it: another study; cited from earlier work.
Where [5] appears, read: Homo sapiens, BT-549, 24 h, dark.
Setting [6] is: Homo sapiens, BT-549, 24 h, light.

Results on one compound are retold here after patent US20260306633A1, “A COMBINATION THERAPY FOR CANCER TREATMENT” (Purdue Research Foundation, priority 2023, published 2026).

Entries after “also recorded” stand apart in the source; their conditions may differ. Read-outs that look alike come from different tables or passages of the source.

Consider `CC(=O)O[C@H]1C(=O)[C@@]2(C)[C@H]([C@H](OC(=O)c3ccccc3)[C@]3(O)C[C@H](OC(=O)[C@H](O)[C@@H](NC(=O)c4ccccc4)c4ccccc4)C(C)=C1C3(C)C)[C@]1(OC(C)=O)CO[C@@H]1C[C@@H]2O` [paclitaxel, reference compound], for which the viability at 0.05 µM in assay [1] (Homo sapiens, BT-549, 24 h, paclitaxel 50 nM, dark, read-out: cell survival, drug only) amounted to 57%. Further, in assay [1] (setting [5]), the viability at 0.1 µM was 49% and the viability at 0.01 µM worked out at 64%. Moreover, in assay [1] (setting [6]), the viability at 0.1 µM stood at 52% and the viability at 0.01 µM was determined as 66%. The “average increase in cell survival upon light irradiation compared to unirradiated cells, drug only” value in assay [1] (drug alone, light vs dark) is listed as 4%. The “cell morphology, paclitaxel-treated” value in assay [2] is “shrunk cells and chromatin fragmentation are evident; also recorded: Shrunk cells and chromatin condensation are evident”. Also, the “ultrastructure, paclitaxel in the dark” value in assay [3] (dark (FIG. 19C)) was “Irregularly shaped nuclear envelope; also recorded: loss of nuclear circularity and formation of chromatin condensation”. Also, the “ultrastructure, paclitaxel irradiated” value in assay [3] (light 0.48 J/cm^2 (FIG. 19E)) was “smaller nuclei in multi-nucleated cells indicating chromosomal condensation; also recorded: split and fragmented with many atypical vesicular components in the cytosolic compartment”. Further, the “cell death modes triggered” value in assay [4] is “apoptosis, autophagy, and mitotic catastrophe were triggered”.
